What was measured:
[1] = tested on: C. autoethanogenum DSM23693; assay: Bottle growth experiments on CO-containing gas, acetone/isopropanol production from expression plasmids; type: cell-based, Clostridium autoethanogenum; conditions: Organism C. autoethanogenum, Substrate CO; for Acetone (g/L): 'Detected' = by GC qualitatively
Method: HPLC analysis of acetone, isopropanol and other metabolites was performed using an Agilent 1100 Series HPLC system equipped with a RID operated at 35° C. (Refractive Index Detector) and an Alltech IOA-2000 Organic acid column (150×6.5 mm, particle size 5 μm) kept at 60° C. Slightly acidified water was used (0.005 M H2SO4) as mobile phase with a flow rate of 0.7 ml/min. To remove proteins and other cell residues, 400 μl samples were mixed with 100 μl of a 2% (w/v) 5-Sulfosalicylic acid and centrifuged at 14,000×g for 3 min to separate precipitated residues. 10 μl of the supernatant were then injected into the HPLC for analyses.
GC analysis of acetone, isopropanol and other metabolites was performed using an Agilent 6890N headspace GC equipped with a Supelco PDMS 100 1 cm fiber, an Alltech EC-1000 (30 m×0.25 mm×0.25 μm) column, and a flame ionization detector (FID). 5 ml samples were transferred into a Hungate tube, heated to 40° C. in a water bath and exposed to the fiber for exactly 5 min. The injector was kept at 250° C. and helium with a constant flow of 1 ml/min was used as carrier gas. The oven program was 40° C. for 5 min, followed by an increase of 10° C./min up to 200° C. The temperature was then further increased to 220° C. with a rate of 50° C./min followed by a 5 min hold this temperature, before the temperature was decreased to 40° C. with a rate of 50° C./min and a final 1 min hold. The FID was kept at 250° C. with 40 ml/min hydrogen, 450 ml/min air and 15 ml/min nitrogen as make up gas.
Growth experiments were carried out with transformed C. autoethanogenum DSM23693 and C. ljungdahlii DSM 13528 carrying plasmid pMTL85147-thlA-ctfAB-adc in 250 ml PETC media (Table 2; without fructose and yeast extract) in 1 l Schott bottles with rubber stoppers and 30 psi steel mill gas (collected from New Zealand Steel site in Glenbrook, NZ; composition: 44% CO, 32% N2, 22% CO2, 2% H2) in the headspace as sole energy and carbon source. Acetone production was confirmed with both strains using HPLC and GC analysis. […] Using appropriate conditions, the produced acetone can then be further converted to isopropanol.
Therefore, both cultures were re-gassed with 30 psi fresh steel-mill gas after 48 h of growth and also re-inoculated. While biomass didn't increase much further, some of the produced acetone got converted into isopropanol within 24 hours (Table 16).
(§1) Constructed expression plasmids pMTL85245-kivd-adh2 and pMTL85245-kivd were transformed into E. coli strain JW3350-2 and prepared for transformation in C. autoethanogenum DSM23693, which was performed as described above. […] In serum bottle experiments, highest isopropanol concentrations from CO-containing steel mill gas were 0.050-0.064 g/L for both expression plasmids (FIGS. 65 and 66).
(§2) All plasmid construct were tested in E. coli and C. autoethanogenum DSM23693 using serum bottle experiments with sugar (E. coli) or CO-containing steel mill gas (C. autoethanogenum) as sole substrate. With all combinations tested, acetone and isopropanol production was measured when expressed heterologously in C. autoethanogenum, while in E. coli acetone production only occurred with few combinations and an alcohol dehydrogenase gene was needed for isopropanol production (Table 21). […] In C. autoethanogenum, acetone and isopropanol production even occurred with expressing the decarboxylase as only heterologous gene, indicating CoA-transferase activity. FIG. 4 illustrates the proposed pathway and Table 21 of acetone and isopropanol formation from CO and FIG. 73 gives an overview of combinations of Clostridial pathway genes and codon-optimized genes for Alpha-ketoacid decarboxylase Kivd from L lactis and Alcohol dehydrogenase Adh2 from S. cerevisiae tested in E. coli and C. autoethanogenum.

E. coli = assay: Serum bottle experiments with plasmid constructs, sugar as sole substrate; type: cell-based, Escherichia coli; conditions: Organism E. coli, 'Detected' = by GC qualitatively
Method: as §1, §2

[2] = tested on: Clostridium autoethanogenum DSM23693; assay: Toxicity of acetone and isopropanol on growing cultures; type: cell-based; conditions: at concentrations as high as 5%
Text: Several metabolites such as alcohols (ethanol and butanol) or acids (acetic acid and butyric acid) are known to be toxic for bacteria in high concentrations and thus limit their biotechnological production [Alsaker K V, Parades C, Papoutsakis E T: Metabolite stress and tolerance in the production of biofuels and chemicals—systems analysis of butanol, butyrate, and Acetate Stresses in the Anaerobe Clostridium acetobutylicum. Biotechnol Bioeng, 2009, 105: 1131-1147]. To see if acetone and isopropanol have a toxic effect on cultures, growth experiments were carried out in 50 ml PETC media (Table 2) in serum bottles, adding different concentrations of acetone (FIG. 12) and isopropanol (FIG. 13) to growing cultures of Clostridium autoethanogenum DSM23693.

[3] = tested on: Clostridium autoethanogenum DSM23693; assay: Experiment A: continuous fermentation on steel mill gas; type: cell-based
Method: Clostridium autoethanogenum DSM23693 carrying the vector pMTL83147 thl-ctfAB-adc-adh2 was grown at 37° C. under mill gas (50% CO, 18% CO2, 2% H2, and 30% N2) was continuously fed into the bioreactor. The gas flow was initially set at 80 ml/min, increasing to 200 ml/min over the course of the experiment, while the agitation was increased from 250 rpm to 750 rpm. Na2S was dosed into the bioreactor at 0.20 ml/hr, increasing to 0.4 ml/hr. The bioreactor was switched to a continuous mode at a rate of 1.0 ml/min (Dilution rate 0.96 d^−1) once the OD600 reached 0.17.
Metabolites concentrations were measured using Agilent 1100 Series HPLC system equipped with a RID operated at 35° C. (Refractive Index Detector) and an Alltech IOA-2000 Organic acid column (150×6.5 mm, particle size 5 μm) kept at 60° C. The presence of Acetone and Isopropanol was also measured using Agilent 6890N headspace GC equipped with a Supelco PDMS 100 1 cm fiber, an Alltech EC-1000 (30 m×0.25 mm×0.25 μm) column, and a flame ionization detector (FID). The composition of the gas inflows and outflows was measured using a Varian CP-4900 micro GC with two installed channels. Channel 1 was a 10 m Mol-sieve column running at 70° C., 200 kPa argon and a backflush time of 4.2 s, while channel 2 was a 10 m PPQ column running at 90° C., 150 kPa helium and no backflush. The injector temperature for both channels was 70° C. Sampling of metabolites was performed daily. Gas analysis was automated and measured hourly.
The growth and metabolite profile of Clostridium autoethanogenum DSM23693 carrying the vector pMTL83147 thl-ctfAB-adc-adh2 in a continuous fermentation over 31 days is shown in FIG. 75. The fermentation ran as a batch fermentation from inoculation to day 6. At day 7 the fermentation was switched to continuous fermentation. The increase in acetate concentration coupled with a decrease in ethanol concentration during continuous fermentation seems to have triggered a significant increase in isopropanol production. […] A GC sample was taken during the run, at day 19.

[4] = tested on: C. autoethanogenum DSM23693; assay: Experiment B: bioreactor fermentation on corex gas with cell retention; type: cell-based, Clostridium autoethanogenum; conditions: corex gas 40% CO, continuous mode with membrane cell retention
Method: Fermentations with C. autoethanogenum DSM23693 carrying the vector pMTL83147 thl-ctfAB-adc-adh2 were carried out in 1.5 L bioreactors at 37° C. and CO-containing steel mill gas. The fermenter was fed with corex gas (40% CO, 15% H2, 15% CO2, 30% N2) as sole energy and carbon source as described below. A defined medium was used containing per litre: MgCl, CaCl2 (0.5 mM), KCl (3 mM), H3PO4 (5 mM), Fe (100 μM), Ni, Zn (5 μM), Mn, B, W, Mo, Se (2 μM) was prepared for culture growth. The media was transferred into the bioreactor and autoclaved at 121° C. for 45 minutes. After autoclaving, the medium was supplemented with Thiamine, Pantothenate (0.05 mg), Biotin (0.02 mg) and reduced with 3 mM Cysteine-HCl. To achieve anaerobic conditions the reactor vessel was sparged with nitrogen through a 0.2 μm filter. […]
Metabolites concentrations were measured using Agilent 1100 Series HPLC system equipped with a RID operated at 35° C. […] The presence of Acetone and Isopropanol was also measured using Agilent 6890N headspace GC equipped with a Supelco PDMS 100 1 cm fiber, an Alltech EC-1000 (30 m×0.25 mm×0.25 μm) column, and a flame ionization detector (FID). The composition of the gas inflows and outflows was measured using a Varian CP-4900 micro GC with two installed channels. […] Gas analysis was automated and measured hourly.

[5] = continuous fermentation over 31 days, mill gas 50% CO

Compound | Isopropanol [1] [g/L] | Acetone (g/L) [1] | inhibition of growth rate [2] | Acetone (E. coli) [g/L] | further results
pMTL85147-thlA-ctfAB-adc-kivd: combination plasmid of Clostridial genes and kivd as labelled in Table 21; probably Seq. ID. No. 95 | 0.091 | Detected |  |  | Acetone (g/L) (E. coli): Detected
CC(C)=O [acetone] |  |  | only slight inhibition of growth rate |  | 
CC(C)O [isopropanol] |  |  | only slight inhibition of growth rate |  | 
pMTL83147-thlA-ctfAB-adc-P-kivd-adh2: expression plasmid with thlA, ctfAB, adc and Ppta-ack-kivd-adh2, Seq. ID. 101 | 0.043 | Detected |  | 0.076 | 
pMTL83147-thlA-ctfAB-adc-adh2: expression plasmid with thlA, ctfAB, adc and Adh2 from S. cerevisiae, Seq. ID. No. 98 | 0.648 | Detected |  | 0.040 | presence of the plasmid by PCR ([3]; checked regularly throughout the fermentation): found to be present throughout the fermentation; Isopropanol production rate [3, 5]: 0.7 g per litre per day; isopropanol concentration reached [3, 5]: 0.250 g per litre; isopropanol concentration reached [4]: 0.37 g per Litre

— US9365868B2, “Fermentation process for producing isopropanol using a recombinant microorganism” (LANZATECH NEW ZEALAND LIMITED, priority 2011, dated 2016)
